From patent publication US20030120049A1, “Non-selective cation channel” (priority 2000, published 2003)

What was measured:
OTRPC4 [1] = target: T1, OTRPC4 (Mus musculus, UniProt Q9EPK8); assay: FURA-2 single cell measurement of intracellular calcium in HEK293 cells transiently expressing OTRPC4-GFP; type: cell-based, murine; settings: for effect on cells which expressed OTRPC4: 10 μM
T1 construct: expressed in transfected cells; host or cells: HEK293 (transient, FuGENE 6)
Excerpt: The cDNA of OTRPC4 was cloned into a eukaryotic expression plasmid containing, at the C-terminal end, a green fluorescent protein (GFP) fusion section (pEGFP-N1). This plasmid was used for the subsequent expression studies. It can be inferred from the nucleotide sequence that the OTRPC4 protein may consist of 871 amino acids, for example, and contains 6 possible transmembranal segments with a sequence between segments 5 and 6 which possibly codes for a pore region of a channel (FIG. 1a). After transient transfection (which was carried out using the FuGENE 6 transfection reagent) of the expression plasmid coding for the OTRPC4-GFP fusion protein in HEK293 cells, dots of fluorescence could be detected in the plasma membrane 24-36 hours later. […] For the following experiments, HEK293 cells were transiently transfected with the above-mentioned expression plasmid containing OTRPC4 and compared, after 24-36 hours, with untransfected control cells.
The influence of extracellular osmolarity on the channel activity of OTRPC4 was investigated. After reducing the osmolarity of the extracellular solution, there was a long, transient and reversible increase in the [Ca^2+]i in the OTRPC4 expressing cells but not in the control cells (FIG. 5). Increasing the osmolarity of the extracellular solution, on the other hand, reduced the [Ca^2+]i (cf. the small diagram in FIG. 4). A significant change in the [Ca^2+]i was observed even when the extracellular solution was changed by 30 mosmol/l. The changes in [Ca^2+]i triggered by changing the osmolarity of the extracellular solution occurred rapidly and reached a peak after about 30 seconds, but varied from cell to cell (see FIG. 4). After returning to the normoosmolar solution, [Ca^2+]i rapidly returned to its base value. In order to distinguish between an influx of calcium from the extracellular medium and a release of calcium from intracellular calcium stores, calcium was replaced by EGTA in the extracellular medium while the cells were exposed to a hypotonic medium. Under these conditions, the FURA-2 signal returned to the base value (see FIG. 4).
The members of the STRPC subfamily of the TRPC channels are activated by signals produced by the activation of the phospholipase C-β (PCL-β) (6-15).
The addition of capsaicin (10 μM) and resiniferatoxin (10 μM) as well as a brief increase in the temperature to 65° C. had no effect on cells which expressed OTRPC4.

OTRPC4 [2] = target: T1, OTRPC4; assay: FURA-2 measurement of intracellular Ca2+ with luminiscence spectrometer in OTRPC4 transfected HEK293 cells; type: cell-based, murine; settings: 100 μM; osmolarity lowered from 320 mosmol/l to 220 mosmol/l
Description: For testing the function of OTRPC4 transfected HEK293 cells with a further method, intracellular Ca^2+ concentration was measured with FURA-2. The experiments were conducted with luminiscence spectrometer (LS 50 B, Perkin Elmer).
For determining the extent of calcium influx into the cells, maximal intracellular Ca^2+ was induced by lonomycin. This [Ca^2+]i could be reverted to its original value by EGTA. Influx of extracellular calcium via OTRPC4 was demostrated by showing change of the intracellular Ca^2+ concentration by lowering osmolarity by 100 mosmol/l (from 320 mosmol/l to 220 mosmol/l). The hypotonic solution led to an increase in [Ca^2+]i which could be quenched by EGTA. Half of the [Ca^2+] increasing effect of hypotonic solution could be blocked by addition of LOE908 (Embaco A, Romanin C, Birke F W, Kukovetz W R, Groschner K: Inhibition of a store-operated Ca2+ entry pathway in human endothelial cells by the isoquinoline derivative LOE 908. British Journal of Pharmacology (1996) 119 702-706) (100 μM) (FIG. 10).

OTRPC4 [3] = target: T1, OTRPC4; assay: Perforated patch measurement of cation currents triggered by hypotonic solution in OTRPC4-expressing cells; type: cell-based, murine; settings: 50 μM
Description: (§1) Because of the rapid “run-down” of the ion fluxes, the other experiments were carried out using the so-called perforated patch method. Measured in standard extracellular solution, the current-voltage curve, measured by applying voltage ramps, show an outwardly rectifying form with a reverse potential of about 0 mV (FIG. 6). When the Na^+- and Ca^2+-ions were removed from the extracellular solution, the inward flux disappeared and the reverse potential moved into the negative area. The average ion fluxes at −100 and +100 mV measured with the aid of ramp protocols were −12.8±1.1 and +32.2±2.7 pA/pF, respectively (n=17, Cm=9.6±5.5 pF).
(§2) Replacing the extracellular standard solution with a solution which contained 100 mM NaCl and 100 mM mannitol (osmolarity: 320 mosmol/l) shifted Er to a more negative potential (−11.2±1.6 mV, n=14), as might be expected from a current carried by cations when the extracellular sodium concentration is reduced (see FIG. 6). Moreover, the inwardly and outwardly directed current components were reduced (−7.0±0.8 and 22.7±2.7 pA/pF at −100 and 100 mV, respectively) (see FIG. 6). The use of a hypoosmolar solution (215 mosmol/l) led, after a delay of a few seconds (about 18 seconds on average) to an increase in both the inwardly and outwardly directed currents (FIG. 7). This increase reached its maximum after 50 seconds, on average. […]

[4] = test system: chloride channels activated by a change in volume; assay: Perforated patch measurement of currents triggered by hypotonic extracellular solution in control cells; type: cell-based; settings: 50 μM
Description: as §1, §2

T1 sequence (Q9EPK8 whole entry): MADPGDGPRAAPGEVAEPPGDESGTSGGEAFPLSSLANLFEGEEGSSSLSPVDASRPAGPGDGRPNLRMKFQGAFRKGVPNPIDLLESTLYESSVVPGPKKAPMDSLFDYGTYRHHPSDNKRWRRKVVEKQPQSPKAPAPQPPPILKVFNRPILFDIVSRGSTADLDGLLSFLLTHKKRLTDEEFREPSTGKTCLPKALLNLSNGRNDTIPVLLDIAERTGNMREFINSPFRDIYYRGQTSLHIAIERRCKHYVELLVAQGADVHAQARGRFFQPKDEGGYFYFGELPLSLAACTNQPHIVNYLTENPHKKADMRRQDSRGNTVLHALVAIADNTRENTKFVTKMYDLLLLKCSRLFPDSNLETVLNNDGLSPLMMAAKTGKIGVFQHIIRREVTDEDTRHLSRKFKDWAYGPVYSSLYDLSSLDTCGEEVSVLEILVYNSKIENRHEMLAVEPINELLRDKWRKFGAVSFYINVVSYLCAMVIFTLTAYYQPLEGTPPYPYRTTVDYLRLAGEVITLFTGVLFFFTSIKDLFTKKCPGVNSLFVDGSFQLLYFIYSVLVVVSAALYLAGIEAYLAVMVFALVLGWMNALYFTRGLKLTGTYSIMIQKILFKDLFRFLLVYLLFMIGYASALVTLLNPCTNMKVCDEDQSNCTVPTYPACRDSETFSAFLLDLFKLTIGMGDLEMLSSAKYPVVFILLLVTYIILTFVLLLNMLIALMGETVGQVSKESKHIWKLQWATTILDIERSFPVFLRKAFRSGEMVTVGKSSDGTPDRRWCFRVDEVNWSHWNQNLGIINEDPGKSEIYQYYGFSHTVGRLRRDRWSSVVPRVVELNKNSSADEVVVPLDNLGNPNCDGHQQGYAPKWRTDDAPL

[Cl][Gd]([Cl])[Cl] [GdCl3]
effect on the influx of calcium into OTRPC4-expression cells triggered by hypoosmolarity (OTRPC4 [1]; 1 mM, HEK293 cells expressing OTRPC4): no effect

COc1cc2c(cc1OC)C(C(C(=O)N(CCc1ccc(OC)c(OC)c1OC)CCc1ccc(OC)c(OC)c1OC)c1ccccc1)=NCC2 (centres unmarked) [LOE908]
block of the [Ca2+] increasing effect of hypotonic solution (OTRPC4 [2]): Half

[Cl][La]([Cl])[Cl] [LaCl3]
inhibition of the influx of calcium into OTRPC4-expression cells triggered by hypoosmolarity (OTRPC4 [1]; 100 μM, HEK293 cells expressing OTRPC4): about 50%

O=C(O)c1cc([N+](=O)[O-])ccc1NCCCc1ccccc1 [NPPB]
cation currents in OTRPC4-expressing cells triggered by hypotonic solution (OTRPC4 [3]): unaffected | activation of currents triggered by hypotonic extracellular solution in control cells [4]: inhibited completely

COc1cc(CNC(=O)CCCC/C=C/C(C)C)ccc1O [capsaicin]
effect on cells which expressed OTRPC4 (OTRPC4 [1]): no effect

C=C(C)[C@]12C[C@@H](C)[C@@]34O[C@](Cc5ccccc5)(O[C@@H]1[C@@H]3C=C(COC(=O)Cc1ccc(O)c(OC)c1)C[C@]1(O)C(=O)C(C)=C[C@@H]41)O2 [resiniferatoxin]
effect on cells which expressed OTRPC4 (OTRPC4 [1]): no effect

C/C=C(/C)C(=O)O[C@H]1C(C)=C2[C@H]([C@@H]1OC(=O)CCCCCCC)[C@@](C)(OC(C)=O)C[C@H](OC(=O)CCC)[C@@]1(O)[C@H]2OC(=O)[C@@]1(C)O [thapsigargin]
amplitude of the FURA-2 signal triggered by the hypotonic medium after emptying the intracellular stores (OTRPC4 [1]; 5 μM, added previously, OTRPC4-expressing cells): did not alter the amplitude
